# Source: patent US8288438B2, “Methods for avoiding edema in the treatment or prevention of PPARγ-responsive diseases, including cancer” (Metabolex, Inc., priority 2005, dated 2012)
# Key:
# Format in all cases: in vivo
# [1] = test system: C57BL/6j ob/ob Mice; experiment: glucose lowering activity of halofenate analogs in C57BL/6J ob/ob mice (Example 14); conditions: 125 mg/kg oral gavage once a day
# Procedure: Male, 8-9 weeks old, C57BL/6J ob/ob mice were purchased from The Jackson Laboratory (Bar Harbor, Me., USA). Animals were housed (4-5 mice/cage) under standard laboratory conditions at 22±3° C. temperature and 50±20% relative humidity, and were maintained on a diet of Purina rodent chow and water ad libitum. Prior to treatment, blood was collected from the tail vein of each animal. Mice that had non-fasting plasma glucose levels between 250 and 500 mg/dl were used. Each treatment group consisted of 8-10 mice that were distributed so that the mean glucose levels were equivalent in each group at the start of the study. Mice were dosed orally by gavage once a day for 1-3 days with either vehicle, (−) halofenic acid, (±) analog 14, 29, 33, 34, 35, 36, 37, or 38 at 125 mg/kg or (−) analog 29, 36, 37 or 38 at 150 mg/kg. compounds were delivered in a liquid formulation containing 5% (v/v) dimethyl sulfoxide (DMSO), 1% (v/v) tween 80 and 0.9% (w/v) methylcellulose. The gavage volume was 10 ml/kg. Blood samples were taken at 6 hours after the each dose and analyzed for plasma glucose. Food intake and body weight were measured daily. Plasma glucose concentrations were determined calorimetrically using glucose oxidase method (Sigma Chemical Co, St. Louis, Mo., USA). Significant difference between groups (comparing drug-treated to vehicle-treated) was evaluated using the Student unpaired t-test.
# [2] = test system: C57BL/6j ob/ob Mice; experiment: anti-diabetic activities in the C57BL/6j ob/ob Mice model (Example 20); conditions: for Insulin Level compared with vehicle: ob/ob mice, oral gavage; for minimal effective dose: Mus musculus, oral gavage once a day for 1-4 days, plasma glucose 6 hours after dose, read-out: Potency (glucose lowering)
# Procedure: (§1) The anti-diabetic activities of the compounds were evaluated in the C57BL/6j ob/ob Mice model.
# (§2) Male, 7-9 weeks old, C57BL/6J ob/ob mice were purchased from The Jackson Laboratory (Bar Harbor, Me., USA). Animals were housed (4-5 mice/cage) under standard laboratory conditions at 22±3° C. temperature and 50±20% relative humidity, and were maintained on a diet of Purina rodent chow and water ad libitum. Prior to treatment, blood was collected from the tail vein of each animal. Mice that had non-fasting plasma glucose levels between 250 and 500 mg/dl were used. Each treatment group consisted of 8-10 mice that were distributed so that the mean glucose levels were equivalent in each group at the start of the study. Mice were dosed orally by gavage once a day for 1-4 days with vehicle and one or more dose of test compound at a dose ranging from 5 to 125 mg/kg. compounds were delivered in a liquid formulation containing 5% (v/v) dimethyl sulfoxide (DMSO), 1% (v/v) Tween 80® and 0.9% (w/v) methylcellulose. The gavage volume was 10 ml/kg. Blood samples were taken at 6 hours after the each dose and analyzed for plasma glucose. Food intake and body weight were measured daily. Plasma glucose concentrations were determined colorimetrically using a commercial glucose oxidase method (Sigma Chemical Co, St. Louis, Mo., USA). Significant difference between groups (comparing drug-treated to vehicle-treated) was evaluated using the Student unpaired t-test.
# [3] = test system: C57BL/6j ob/ob Mice; experiment: anti-diabetic activities in the C57BL/6j ob/ob Mice model (Example 13); conditions: for Insulin Level compared with vehicle: ob/ob mice, oral gavage; for Potency (glucose lowering): oral gavage once a day for 1-4 days, 5 to 125 mg/kg, plasma glucose 6 hours after dose
# Procedure: as §1
# as §2, with “80 (and” for “80® and”, “Blood samples were taken at 6 hours after the each dose and analyzed for plasma glucose.” left out, “Plasma glucose concentrations were determined colorimetrically using a commercial glucose oxidase method (Sigma Chemical Co, St.” left out, “t-test. […]” for “t-test.”
SMILES,plasma glucose concentrations vs vehicle (in words) [1],Insulin Level compared with vehicle [2],Insulin Level compared with vehicle [3],Potency (glucose lowering) [3],minimal effective dose [2]
CC(=O)NCCOC(=O)C(Oc1cccc(C(F)(F)F)c1)c1ccc(F)cc1 (racemic) [(±)Analog 14],"significantly lowered plasma glucose concentrations at 6, 30 and 54 hours",–,–,–,–
CC(=O)NCCOC(=O)C(Oc1cccc(C(F)(F)F)c1)c1ccc(Br)cc1 (racemic) [(±)Analog 29],"significantly lowered plasma glucose concentrations at 6, 30 and 54 hours",–,–,–,–
CCCCOC(=O)C(Oc1cccc(C(F)(F)F)c1)c1ccc(Cl)cc1 (racemic) [(±)Analog 33],significantly lowered plasma glucose concentrations at 6 and 54 hours,–,–,–,–
CN(C)CCOC(=O)C(Oc1cccc(C(F)(F)F)c1)c1ccc(Cl)cc1 (racemic) [(±)Analog 35],significantly lowered plasma glucose concentrations at 30 and 54 hours,–,–,–,–
"O=C(O)C(Oc1ccc(C(F)(F)F)cc1)c1cccc(C(F)(F)F)c1 (racemic) [Compound 39, (4-trifluoromethyl-phenoxy)-(3-trifluoromethyl-phenyl)acetic acid]",–,Lower,–,–,–
O=C(O)C(Oc1ccccc1-c1nc2ccccc2o1)c1ccc(Cl)cc1 (racemic) [Compound I-1],–,–,Lower,++ (effective for glucose lowering at a dose of >25 mg/kg but <125 mg/kg),–
O=C(O)C(Oc1ccccc1-c1nc2ccccc2o1)c1cccc(C(F)(F)F)c1 (racemic) [Compound I-3],–,–,Lower,+ (effective for glucose lowering at the dose of ≧125 mg/kg),–
O=C(O)C(Oc1ccc(C(F)(F)F)cc1-c1nc2ccccc2o1)c1cccc(C(F)(F)F)c1 (racemic) [Compound I-89],–,–,Lower,+++ (effective for glucose lowering at a dose of ≦25 mg/kg),–
O=C(O)C(Oc1ccc(C(F)(F)F)cc1-c1nc2ccccc2o1)c1ccccc1 (racemic) [Compound I-92],–,–,Lower,+++ (effective for glucose lowering at a dose of ≦25 mg/kg),–
O=C(O)C(Oc1ccc(Cl)cc1-c1nc2ccccc2o1)c1ccc(Cl)cc1 (racemic) [Compound I-190],–,–,Lower,+++ (effective for glucose lowering at a dose of ≦25 mg/kg),–
O=C(O)C(Oc1ccc(Cl)cc1-c1nc2ccccc2o1)c1cccc(C(F)(F)F)c1 (racemic) [Compound I-191],–,–,Lower,+++ (effective for glucose lowering at a dose of ≦25 mg/kg),–
COc1ccc(C(Oc2ccc(Cl)cc2-c2nc3ccccc3o2)C(=O)O)cc1 (racemic) [Compound I-193],–,–,Lower,+++ (effective for glucose lowering at a dose of ≦25 mg/kg),–
O=C(O)C(Oc1ccc(Cl)cc1-c1nc2ccccc2o1)c1cccc(Cl)c1 (racemic) [Compound I-194],–,–,Lower,+++ (effective for glucose lowering at a dose of ≦25 mg/kg),–
"O=C(O)C(Oc1ccc(C(F)(F)F)cc1-c1nc2ccccc2o1)c1ccc(Cl)cc1 (single isomer, unassigned) [Compound I-372]",–,–,Lower,+++ (effective for glucose lowering at a dose of ≦25 mg/kg),–
"O=C(O)C(Oc1ccc(C(F)(F)F)cc1)c1cccc(C(F)(F)F)c1 (single isomer, unassigned; (-)) [(−)-39, (4-trifluoromethyl-phenoxy)-(3-trifluoromethyl-phenyl)acetic acid]",–,Lower,–,–,≤ 125 mg/kg
O=C(O)C(Oc1cc(C(F)(F)F)cc(C(F)(F)F)c1)c1ccc(C(F)(F)F)cc1 (centres unmarked) [Compound 81],–,Lower,–,–,≤ 125 mg/kg
O=C(O)C(Oc1ccc(C(F)(F)F)cc1)c1ccc(C(F)(F)F)cc1 (centres unmarked) [Compound 83],–,Lower,–,–,≤ 125 mg/kg

SMILES,plasma glucose concentrations vs vehicle (in words) [1],Insulin Level compared with vehicle [2],Insulin Level compared with vehicle [3],Potency (glucose lowering) [3],minimal effective dose [2]
O=C(O)C(Oc1ccc(C(F)(F)F)cc1Cl)c1cccc(C(F)(F)F)c1 (centres unmarked) [Compound 85],–,Lower,–,–,≤ 125 mg/kg
O=C(O)C(Oc1cccc(C(F)(F)F)c1)c1ccc(C(F)(F)F)cc1 (centres unmarked) [Compound 86],–,Lower,–,–,≤ 125 mg/kg
O=C(O)C(Oc1ccc(C(F)(F)F)cc1Cl)c1ccc(C(F)(F)F)cc1 (centres unmarked) [Compound 89],–,Lower,–,–,≤ 125 mg/kg
"O=C(O)C(Oc1ccc(C(F)(F)F)cn1)c1cccc(C(F)(F)F)c1 (centres unmarked) [Compound 100, (3-Trifluoromethyl-phenyl)-(5-trifluoromethyl-pyridin-2-yloxy)-acetic acid]",–,Lower,–,–,≤ 125 mg/kg
"CC(Oc1ccc(C(F)(F)F)cc1)(C(=O)O)c1cccc(C(F)(F)F)c1 (centres unmarked) [Compound 120, 2-(4-trifluoromethyl-phenoxy)-2-(3-trifluoromethyl-phenyl)propionic acid]",–,Lower,–,–,≤ 125 mg/kg
"CC(Oc1ccc(C(F)(F)F)cc1)(C(=O)O)c1ccc(C(F)(F)F)cc1 (centres unmarked) [Compound 121, 2-(4-Trifluoromethyl-phenoxy)-2-(4-trifluoromethyl-phenyl)-propionic acid]",–,Lower,–,–,≤ 125 mg/kg
OCC(Oc1ccc(C(F)(F)F)cc1)c1ccc(C(F)(F)F)cc1 (centres unmarked) [Compound 128],–,Lower,–,–,≤ 125 mg/kg
"CC(=O)NCCOC(=O)C(Oc1ccc(C(F)(F)F)cc1)c1cccc(C(F)(F)F)c1 (centres unmarked) [Compound 136, (4-trifluoromethyl-phenoxy)-(3-trifluoromethyl-phenyl)-acetic acid 2-acetylamino-ethyl ester]",–,Lower,–,–,≤ 125 mg/kg
CC(=O)NCCOC(=O)C(Oc1cccc(C(F)(F)F)c1)c1ccc(C(F)(F)F)cc1 (centres unmarked) [Compound 142],–,Lower,–,–,≤ 125 mg/kg
CC(=O)NCCOC(=O)C(Oc1cc(C(F)(F)F)cc(C(F)(F)F)c1)c1ccc(C(F)(F)F)cc1 (centres unmarked) [Compound 143],–,Lower,–,–,≤ 125 mg/kg
CC(=O)NCCOC(=O)C(Oc1cccc(C(F)(F)F)c1)c1cccc(C(F)(F)F)c1 (centres unmarked) [Compound 144],–,Lower,–,–,≤ 125 mg/kg
CC(=O)NCCOC(=O)C(Oc1ccc(C(F)(F)F)cc1)c1ccc(C(F)(F)F)cc1 (centres unmarked) [Compound 145],–,Lower,–,–,≤ 125 mg/kg
CC(=O)NCCOC(=O)C(Oc1ccccc1C(F)(F)F)c1ccc(C(F)(F)F)cc1 (centres unmarked) [Compound 146],–,Lower,–,–,> 125 mg/kg
CC(=O)NCCOC(=O)C(Oc1cccc(C(F)(F)F)c1)c1ccccc1C(F)(F)F (centres unmarked) [Compound 147],–,Lower,–,–,> 125 mg/kg
O=C(O)C(Oc1ccc(C(F)(F)F)cc1-c1nc2ccccc2o1)c1ccccc1 (centres unmarked) [Compound I-369],–,–,Lower,+++ (effective for glucose lowering at a dose of ≦25 mg/kg),–
CC(Oc1ccc(C(F)(F)F)cc1-c1nc2ccccc2o1)(C(=O)O)c1ccccc1 (centres unmarked) [Ia-365],–,–,Lower,+++ (effective for glucose lowering at a dose of ≦25 mg/kg),–
CC(Oc1ccc(C(F)(F)F)cc1-c1nc2ccccc2o1)(C(=O)O)c1ccccc1 (centres unmarked) [Ia-366],–,–,Lower,–,–
